How the values were obtained:
clinical = conditions: male, human, in vivo
Excerpt: (§1) The study is designed as an escalating single-dose, randomized, double-blind, placebo-controlled study in healthy adult male subjects.
(§2) The subjects will be monitored closely for safety and be tested using various pharmacodynamic measures during this phase. E.g. blood and urine samples will be collected for determination of the concentration of the active agent and its metabolites.
(§3) Pharmacokinetic samples will be analyzed after each cohort to examine the extent of drug exposure. Blood samples will be collected for determination of the active agent, its metabolites, and related substances at the following time-points: 0.25, 0.5, 1.0, 1.5, 2, 3, 4, 5, 6, 8, 10,12, 24, 30, 36, 48, 60, 72, 84 hr after dosing, and at End of Study. Up to 5 additional post-dosing blood sampling(s) may be performed and/or the timing of pharmacokinetic parameters draws may change if indicated after the analysis of blood samples from previous cohort(s). Samples will be collected after vital signs, pulse oximetry, and ECG are obtained.

[1] = human, in vivo, po
Excerpt: as §1, §2, §3

[2] = escalating single-dose, randomized, double blind, placebo-controlled pharmacokinetic study, oral suspension, healthy male subjects; conditions: human, plasma
Excerpt: as §1, §2, §3

## COC[C@@]1(O)CC[C@]2(C)C3CC[C@@]4(C)C(CC[C@@H]4C(=O)Cn4ccnc4)C3CC[C@H]2C1 (stereo partly drawn) [3α-hydroxy-3β-methoxymethyl-21-(1′-imidazolyl)-5α-pregnan-20-one]
clinical
  Tmax: 1.5 to 5 h
clinical; 1 mg
  Cmax: 1 to 1.8 ng/mL
clinical; 3 mg
  Cmax: 4 to 8 ng/mL
clinical; 10 mg
  Cmax: 16.9 to 46.3 ng/mL
clinical; 30 mg
  Cmax: 95.6 to 154 ng/mL
clinical; 60 mg
  Cmax: 218 to 479 ng/mL
clinical; po
  Tmax: 1 to 3 h
  half-life: ~12 h
clinical; po, 1 mg
  Cmax: 1.3 ng/mL
  Tmax: 3.1 h
clinical; po, 1 mg, AUC (0-24)
  AUC(0-t): 16.9 ng·h/mL
clinical; po, 1 mg, AUC (0-last)
  AUC(0-t): 22.4 ng·h/mL
clinical; po, 3 mg
  Cmax: 5.7 ng/mL
  Tmax: 2.8 h
  half-life: 8.8 h
clinical; po, 3 mg, AUC (0-24)
  AUC(0-t): 54.6 ng·h/mL
clinical; po, 3 mg, AUC (0-last)
  AUC(0-t): 65.6 ng·h/mL
clinical; po, 10 mg
  Cmax: 26.5 ng/mL
  Tmax: 1.7 h
clinical; po, 10 mg, AUC (0-24)
  AUC(0-t): 213 ng·h/mL
clinical; po, 10 mg, AUC (0-last)
  AUC(0-t): 254 ng·h/mL
clinical; po, 30 mg
  Cmax: 120 ng/mL
  Tmax: 2.1 h
clinical; po, 30 mg, AUC (0-24)
  AUC(0-t): 952 ng·h/mL
clinical; po, 30 mg, AUC (0-last)
  AUC(0-t): 1120 ng·h/mL
clinical; po, 60 mg
  Cmax: 330 ng/mL
  Tmax: 1.8 h
clinical; po, 60 mg, AUC (0-24)
  AUC(0-t): 2330 ng·h/mL
clinical; po, 60 mg, AUC (0-last)
  AUC(0-t): 2610 ng·h/mL
[1]
  Cmax levels between subjects: variable
  Cmax values versus dose: greater than dose-proportional
[2]; 1 mg
  half-life: 13.8 h
[2]; 10 mg
  half-life: 13.1 h
[2]; 30 mg
  half-life: 13.1 h
[2]; 60 mg
  half-life: 12.5 h

Reference: US20120276196A1, “Pharmaceutical Compositions of a Neuroactive Steroid and Methods of Use Thereof” (Euro-Celtique S.A., priority 2005, published 2012)
